In brackets after ≈: the same amount, converted by molar mass. Several values for one entry are separate records, joined by “and”; a condition that tells them apart may be missing. Identical values can stand only once. Like-named read-outs stand apart in the source and are kept apart here.
Key:
H. pylori ATCC 700392 = assay: anti-Helicobacter pylori activity, microwell dilution method with MTT; format: cell-based
Procedure: The anti-Helicobacter pylori activity of the PF and NPF as well as the isolated compounds was evaluated against H. pylori ATCC 700392 (type strain, obtained from the American Type Culture Collection unit (ATCC), using microwell dilution method and clarithromycin as standard drug[37]. The detailed procedures were described in the supplementary file.
The anti-Helicobacter pylori activity of the PF and NPF as well as the isolated compounds was evaluated against H. pylori ATCC 700392 (a type strain, obtained from the American Type Culture Collection unit (ATCC), using microwell dilution method and clarithromycin as standard drug ^1. The tested samples were prepared in dimethyl sulfoxide and successive ten twofold dilutions (125- 0.24 µg/mL) were carried out in a 96-well plate. Each microplate well included forty μL of Brain Heart Infusion growth medium and 10% fetal bovine serum (FBS), ten μL of inoculum and fifty μL of the tested sample. The plates were incubated for 3 days, in 5% oxygen, 10% carbon dioxide, 85 % nitrogen atmosphere at 37°C. Forty μL of 3- (4, 5-dimethyl-thiazol-2-yl)- 2,5-diphenyl-tetrazolium bromide (MTT) at a final concentration of 0.5 mg/mL freshly prepared in H2O was added to each well and incubated for 30 min. The bacteria were biologically active when change to purple color was observed ^1. While no change in MTT color indicated inhibition. Solvent control (DMSO) and the standard antibiotic (clarithromycin) were used as negative and positive controls, respectively. The H. pylori inhibition % was calculated using the given formula:
% Inhibition = Abs control – Abs sample × 100 /Abs control.

ovine COX-1 = target: T1, ovine COX-1 (Ovis aries, UniProt P05979); assay: COX-1 inhibitory activity, colourimetric COX inhibitor screening assay kit; format: biochemical; conditions: ovine COX-1; ND = not detected
T1 construct: purchased
T1 sequence (P05979 25-600): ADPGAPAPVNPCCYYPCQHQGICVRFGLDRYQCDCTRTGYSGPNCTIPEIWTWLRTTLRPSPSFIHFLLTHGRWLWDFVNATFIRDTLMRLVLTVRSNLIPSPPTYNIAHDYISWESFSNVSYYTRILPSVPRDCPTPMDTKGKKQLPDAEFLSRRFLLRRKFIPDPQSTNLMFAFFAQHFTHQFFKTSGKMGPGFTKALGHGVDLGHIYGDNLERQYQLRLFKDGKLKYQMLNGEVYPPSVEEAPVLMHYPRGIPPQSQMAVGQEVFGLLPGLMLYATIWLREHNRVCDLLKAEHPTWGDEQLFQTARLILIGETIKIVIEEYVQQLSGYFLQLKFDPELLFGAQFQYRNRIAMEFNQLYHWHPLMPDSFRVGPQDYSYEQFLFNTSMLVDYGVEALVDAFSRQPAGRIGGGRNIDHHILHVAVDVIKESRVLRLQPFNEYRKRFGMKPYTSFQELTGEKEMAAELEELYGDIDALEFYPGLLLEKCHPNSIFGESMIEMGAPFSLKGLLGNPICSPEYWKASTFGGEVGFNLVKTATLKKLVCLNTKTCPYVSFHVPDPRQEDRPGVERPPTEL
Procedure: (§1) The inhibitory COX activity was assayed colourimetrically by examining the inhibition of the ovine COX-1 and human recombinant COX-2 enzymes as described by George et al.[38], using a COX inhibitor screening assay kit. The detailed procedures were described in the supplementary file.
(§2) The inhibitory COX activity was assayed colourimetrically by examining the inhibition of the ovine COX-1 and human recombinant COX-2 enzymes as described by George et al. ^2, using a COX inhibitory screening assay kit. This assay determines the COX peroxidase activity by monitoring the appearance of N,N,N',N'-tetramethyl-p-phenylenediamine (TMPD). Assay buffer (150 μL 0.1 M Tris–HCl pH 8.0), 10 μL heme and 10μL enzyme (COX-1 or COX-2) were added in each well. Ten μL of each tested sample concentration was added to each well and incubated for 15 minutes at 37°C. After incubation, 20 μL of TMPD was added to each well. For initiating the reaction, 10 μL 10 mM arachidonic acid was added and the plates were further incubated for another 2 minutes at 37°C. For terminating the reaction, 50 μL 1 N HCl and saturated stannous chloride were added.
(§3) Reaction mixture containing assay buffer and heme acted as the blank and a mixture with either COX-1 or COX-2 assay buffer and heme acted as the 100% initial activity (IA). […] The absorbances of oxidized TMPD (blue colour) were read in ELISA plate reader at 590 nm. The % inhibition was calculated using the following formula:
(§4) COX % Inhibition= [(100%IA−Inhibitor)/ 100% IA x 100]. Where, IA: 100% initial activity.
(§5) The concentration at which the tested sample produces 50% inhibition of COX-1 and/or COX-2 (IC50) was determined. The selectivity index (SI) was calculated also as IC50 (COX-1)/ (COX-2).

human recombinant COX-2 = target: T2, human recombinant COX-2 (Homo sapiens, UniProt P35354); assay: COX-2 inhibitory activity, colourimetric COX inhibitor screening assay kit; format: biochemical
T2 construct: purchased
T2 sequence (P35354 18-604): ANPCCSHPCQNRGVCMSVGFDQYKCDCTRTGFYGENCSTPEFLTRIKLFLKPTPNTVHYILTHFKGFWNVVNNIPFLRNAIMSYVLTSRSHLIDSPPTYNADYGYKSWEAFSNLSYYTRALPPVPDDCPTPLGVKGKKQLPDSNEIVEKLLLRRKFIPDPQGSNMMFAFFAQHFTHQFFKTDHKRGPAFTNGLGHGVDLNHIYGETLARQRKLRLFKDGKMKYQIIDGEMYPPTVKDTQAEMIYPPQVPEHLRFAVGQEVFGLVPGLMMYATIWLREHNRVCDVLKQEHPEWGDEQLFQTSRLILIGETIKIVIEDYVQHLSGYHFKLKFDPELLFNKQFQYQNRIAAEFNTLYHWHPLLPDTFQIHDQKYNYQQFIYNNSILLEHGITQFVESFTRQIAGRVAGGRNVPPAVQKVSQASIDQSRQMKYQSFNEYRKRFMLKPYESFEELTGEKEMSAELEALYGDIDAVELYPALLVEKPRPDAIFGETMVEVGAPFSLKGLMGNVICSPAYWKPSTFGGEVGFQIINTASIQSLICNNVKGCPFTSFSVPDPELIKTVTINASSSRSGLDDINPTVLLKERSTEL
Procedure: as §1, §2, §3, §4, §5

[1] = target: T3, H. pylori inosine-5′-monophosphate dehydrogenase (HpIMPDH) (Helicobacter pylori, UniProt P56088); assay: In vitro HpIMPDH inhibition assay (NADH fluorescence); format: biochemical; design: HpIMPDH inhibitory activity: unit not given here
T3 sequence (P56088 1-481): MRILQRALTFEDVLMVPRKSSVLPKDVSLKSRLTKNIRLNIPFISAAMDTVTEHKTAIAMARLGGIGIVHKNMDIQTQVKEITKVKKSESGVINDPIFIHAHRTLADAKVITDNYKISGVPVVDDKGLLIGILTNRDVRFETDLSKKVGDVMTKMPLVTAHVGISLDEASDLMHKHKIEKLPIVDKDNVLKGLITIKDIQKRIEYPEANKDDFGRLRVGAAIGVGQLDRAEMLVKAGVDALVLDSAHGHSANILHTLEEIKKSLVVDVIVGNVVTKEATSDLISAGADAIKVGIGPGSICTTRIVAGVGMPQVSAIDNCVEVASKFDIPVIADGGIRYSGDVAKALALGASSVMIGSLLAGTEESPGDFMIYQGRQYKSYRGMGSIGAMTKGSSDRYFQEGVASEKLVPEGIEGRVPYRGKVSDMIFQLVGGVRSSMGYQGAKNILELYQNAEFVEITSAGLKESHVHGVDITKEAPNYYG
Procedure: The assay was carried out according to Galal[40] and was described in detail in the supplementary file.
(§6) Thus, irigenin was selected to test its HpIMPDH inhibitory activity by monitoring NADH production at concentration range of 10–0.078 µM compared to clarithromycin as standard drug. Also, to examine irigenin selectivity toward the bacterial IMPDH, human hIMPDH2 inhibition potential was assayed.
The assay was carried out in a final volume of two hundred μL in black 96-well plate (Tarsons Products Pvt. Ltd., Kolkata, India) with a reaction buffer composed of one hundred mM KCl, fifty mM Tris–HCl (pH 8.6), and one mM dithiothreitol (DTT). One hundred nM H. pylori inosine-5′-monophosphate dehydrogenase (HpIMPDH) in the presence/absence of the tested compound were used. The assay mixture was then incubated at 37 °C for 10 min, and the reaction was initiated by the adding 250 μM of inosine 5ʹ‐monophosphate (IMP) and 300 μM of nicotinamide adenine dinucleotide (NAD^+) substrate buffer. The assay was allowed to proceed for 45 min at 37 °C.
The formed NADH was measured by recording the fluorescence (excitation 340 nm, emission 440 nm) using PerkinElmer EnVision Multilabel Reader (Waltham, MA) at an interval of one min. DMSO and clarithromycin were used as vehicle control and positive control, respectively. The concentration of the tested sample leading to 50% HpIMPDH inhibition (IC50) was estimated.

[2] = target: T4, Human inosine-5′-monophosphate dehydrogenase (hIMPDH2) (Homo sapiens, UniProt P12268); assay: In vitro hIMPDH2 inhibition assay (NADH absorbance at 340 nm); format: biochemical; design: key to hIMPDH2 inhibitory activity: % hIMPDH2 inhibition; conditions: for hIMPDH2 inhibitory activity: in % (unit assumed)
T4 construct: purchased NovoCIB SAS (Lyon, France)
Procedure: Human inosine-5′-monophosphate dehydrogenase (hIMPDH2) was purchased from NovoCIB SAS (Lyon, France). […] The detailed procedures were described in the supplementary file.
as §6
Human inosine-5′-monophosphate dehydrogenase (hIMPDH2) was purchased from NovoCIB SAS (Lyon, France). […] The assay was carried out in 96-well plates (Tarsons, 980040). The reaction buffer consisted of hundred mM KCl, hundred mM Tris–HCl (pH 8.6), and five mM DTT, 4% v/v DMSO with or without the tested compound and 0.15 mU of purified hIMPDH2 enzyme per well (from 1.5 mg/mL stock concentration). The enzyme stock solution final volume was 2 μL per well, which was insignificant to cause final assay buffer composition change. Addition of (substrate buffer) 0.2 mM of IMP and 0.2 mM of NAD^+ initiated the assay, then it was allowed to proceed for 30 min at 37 °C. The formed NADH was measured by reading the absorbance at 340 nm. […] The concentration of the tested sample leading to 50% hIMPDH2 inhibition (IC50) was estimated.

[3] = Helicobacter pylori, ATCC700392; read-out: MIC (H. pylori)
[4] = concentration required for 100% inhibition; H. pylori ATCC 700392; ND = not detected
[5] = sample conc. 0.078 (range 10–0.078 µM)
[6] = sample conc. 0.156 (range 10–0.078 µM)
[7] = sample conc. 0.313 (range 10–0.078 µM)
[8] = sample conc. 0.625 (range 10–0.078 µM)
[9] = sample conc. 1.25 (range 10–0.078 µM)
[10] = sample conc. 2.5 (range 10–0.078 µM)
[11] = sample conc. 5 (range 10–0.078 µM)
[12] = sample conc. 10 (range 10–0.078 µM)

With `COc1c(O[C@@H]2O[C@H](CO)[C@@H](O)[C@H](O)[C@H]2O)cc2occ(-c3ccc(O)cc3)c(=O)c2c1O` [Tectoridin (P1), tectorigenin-7-O-β-D-glucoside] the MIC (H. pylori ATCC 700392; [3]) was > 125 µg/mL and > 270 µM, the “MIC (H. pylori)” value (H. pylori ATCC 700392; [4]) was over 125 µg/mL and the “MIC (H. pylori)” value (H. pylori ATCC 700392; concentration required for 100% inhibition; H. pylori ATCC 700392; ND = not detected; listed as tectoridine (P1)) was “no activity”. For the same molecule, the “IC50 (COX-1)” value (ovine COX-1) was “no inhibition” and the “IC50 (COX-2)” value (human recombinant COX-2; human recombinant COX-2, ND = not detected) was “no inhibition”.

In the case of `O=c1cc(-c2ccc(O)c(O)c2)oc2c([C@@H]3O[C@H](CO)[C@@H](O)[C@H](O)[C@H]3O)c(O)cc(O)c12` [Orientin (P2), luteolin-8-C-β-glucopyranoside], the MIC (H. pylori ATCC 700392; Helicobacter pylori, ATCC700392, read-out: MIC (H. pylori)) is reported as 15.5 µg/mL and 34.6 µM, the “MIC (H. pylori)” value (H. pylori ATCC 700392; [4]) is reported as 15.53 µg/mL (≈ 34.6 µM) and the MIC (H. pylori ATCC 700392; concentration required for 100% inhibition; H. pylori ATCC 700392; read-out: MIC (H. pylori)) is reported as 34.64 µM (≈ 15.5 µg/mL). The “SI (COX-1/COX-2)” value (human recombinant COX-2; selectivity index calculated as IC50 (COX-1)/(COX-2)) was 1.58.

`CC[C@H]1OC(=O)[C@H](C)[C@@H](O[C@H]2C[C@@](C)(OC)[C@@H](O)[C@H](C)O2)[C@H](C)[C@@H](O[C@@H]2O[C@H](C)C[C@H](N(C)C)[C@H]2O)[C@](C)(OC)C[C@@H](C)C(=O)[C@H](C)[C@@H](O)[C@]1(C)O` [Clarithromycin, clarithromycin, reference compound] was tested, and the MIC (H. pylori ATCC 700392; [3]) was 1.95 µg/mL and 2.61 µM, the IC50 [1] was 510 ± 580 nM and the HpIMPDH inhibitory activity [1, 5] was 9.14 ± 1.70. For the same molecule, the HpIMPDH inhibitory activity [1, 6] was 21.82 ± 2.10, the HpIMPDH inhibitory activity [1, 7] was 38.25 ± 1.50 and the HpIMPDH inhibitory activity [1, 8] was 56.06 ± 0.58. The HpIMPDH inhibitory activity [1, 9] was 69.31 ± 2.10, the HpIMPDH inhibitory activity [1, 10] was 81.22 ± 1.60 and the HpIMPDH inhibitory activity [1, 11] was 100 ± 0.00. The HpIMPDH inhibitory activity [1, 12] was 100 ± 0.00, the IC50 [2] was 3.1 ± 2.1 µM and the hIMPDH2 inhibitory activity [2, 5] was 0.00. It also gave a hIMPDH2 inhibitory activity [2, 6] of 0.00, a hIMPDH2 inhibitory activity [2, 7] of 9.74 ± 0.67 and a hIMPDH2 inhibitory activity [2, 8] of 19.35 ± 1.50. The hIMPDH2 inhibitory activity [2, 9] was 27.32 ± 1.70, the hIMPDH2 inhibitory activity [2, 10] was 46.32 ± 2.20 and the hIMPDH2 inhibitory activity [2, 11] was 60.24 ± 1.50. It also gave a hIMPDH2 inhibitory activity [2, 12] of 76.32 ± 0.50.

Source: article PMC9259591, “Irigenin, a novel lead from Iris confusa for management of Helicobacter pylori infection with selective COX-2 and HpIMPDH inhibitory potential” (Scientific Reports, 2022)
